According to paper PMC6021367, “Regulated intratumoral expression of IL-12 using a RheoSwitch Therapeutic System® (RTS®) gene switch as gene therapy for the treatment of glioma” (Cancer Gene Therapy, 2018):

Columns and labels:
GL-261 glioma = assay: Survival in syngeneic mouse GL-261 orthotopic glioma model; type: in vivo, C57BL/6 mice; details: temozolomide 300 mg/m^2 qdx5, anti-PD-1 15 mg/m^2 q4dx5
Description: At 5 days prior to treatment initiation, female C57BL/6 (C57BL/6NHsd) mice 6–7 weeks old (Envigo; Indianapolis, IN) were inoculated intracranially with 3 µL of GL-261 murine glioblastoma tumor cells at 1 × 10^5 cells/mouse. Implant coordinates were 1 mm anterior and 2 mm lateral to the bregma, at a depth of 3 mm. Buprenorphine (Reckitt Benckiser Healthcare; UK) was administered to the mice approximately 30 min prior to surgery. After 5 days, mice were randomized into one of the treatment groups. For those mice administered Ad-RTS-mIL-12, the vector was administered through the same bur hole at the coordinates above in a constant volume of 3–5 μL. Veledimex was administered via oral gavage once daily for 14 consecutive days.
(§1) All values are expressed as the mean ± standard error of the mean. Statistical analysis was performed using a one-way analysis of variance with Dunnets post hoc test to compare differences between the groups versus control. Increased survival fractions were studied using Kaplan–Meier survival plot followed with a log-rank and Gehan–Wilcoxon tests to assess the significance of the differences. All statistical analyses were performed using GraphPrism 5 (GraphPad Software, Inc., CA, USA). Differences between groups were considered significant when P < 0.05. Pharmacokinetics and tissue levels of veledimex was determined using non-compartmental analysis module of the pharmacokinetic software Phoenix 64 WinNonlin.
In this model, each C57BL/6 mouse received 1 × 10^5 GL-261 glioma cells via intracranial injection ~2 mm distal to the intersection of the coronal and sagittal suture. On day 5, the animals were randomly assigned to one of the treatment groups. Animals were monitored for survival.
1 × 10^5 GL-261 glioma cells were administered into the brain. Separate groups of 12 C57BL/6 mice each were randomly assigned to one of the treatment groups. On day 1 animals were administered 1 × 10^5 GL-261 glioma cells intracranially. On day 5, Ad-RTS-mIL-12 at 5 × 10^9 vp+veledimex PO at 1–30 mg/m^2/day PO was administered for 14 consecutive days and the time to disease progression and death was studied. […] All values are expressed as the mean for >12 animals per group.

[1] = Brain veledimex level in in vivo mechanistic study (increasing vector dose, fixed veledimex dose); design: species or system C57BL/6 mice; details: mean ± SEM
Description: (§2) Brain tumor, plasma and cerebrospinal fluid (CSF) samples were analyzed for veledimex using liquid chromatography/tandem mass spectrometry method. Brain tumor samples were homogenized in homogenization solution (10:90/v:v/acetonitrile:0.1% Tween 80 in water) with ratio of 1 g to 9 mL and proteins precipitated. Veledimex concentrations were calculated with a Quadratic 1/x concentration weighting linear regression over concentration ranges of 0.0500 to 50 ng/mL using deuterated (D3) veledimex as an internal standard.
In this study mice were administered Ad-RTS-mIL-12 1 × 10^8 to 5 × 10^9 vp intracranial at the coordinates stated above with veledimex administered gavage at a fixed dose of 100 mg/m^2/day PO, and brain veledimex, viral copy number and the ability to turn on the switch to elicit local production of IL-12 mRNA and IL-12 protein expressions were assessed. […] The 5 × 10^9 vp dose was chosen for all subsequent studies.

[2] = Plasma and CSF pharmacokinetics of veledimex in cynomolgus monkey; type: in vivo; details: cynomolgus monkeys
Description: as §2, §1
A single oral dose of veledimex at 120 mg was administered to six cynomolgus monkeys (3/gender) and plasma and CSF levels were assessed through 48 h post treatment. Since no gender-related differences were observed, the data from male and female animals were pooled.

[3] = Plasma, CSF and brain pharmacokinetics of veledimex in mouse; type: in vivo, C57BL/6 mice
Description: as §2, §1
Veledimex was administered to separate groups of C57BL/6 mice at a single dose via oral gavage (PO) at 225 mg/m^2. Terminal blood and CSF and brain samples were collected at 1, 2, 4, 6, 24 and 48 h post dose.

[4] = C57BL/6 mice, single oral dose 225 mg/m^2, CSF
[5] = C57BL/6 mice, single oral dose 225 mg/m^2, brain

Cn1nnc2c(C(N)=O)ncn2c1=O [temozolomide]
median survival (GL-261 glioma; bevacizumab 30 mg/m^2 biwk ×3): 33 days | animals surviving to terminal killing (GL-261 glioma; bevacizumab 30 mg/m^2 biwk ×3, day 85): 14% | tumor at terminal killing (GL-261 glioma): all mice having tumor present

CCC[C@@H](N(NC(=O)c1cccc(OC)c1CC)C(=O)c1cc(C)cc(C)c1)C(C)(C)C [veledimex]
Brain veledimex Cmax ([1]; veledimex 100 mg/m^2/day PO + Ad-RTS-mIL-12 1 × 10^8 vp intracranial): 515 ± 53 ng/g | Brain veledimex Cmax ([1]; veledimex 100 mg/m^2/day PO + Ad-RTS-mIL-12 1 × 10^9 vp intracranial): 311 ± 99 ng/g | Brain veledimex Cmax ([1]; veledimex 100 mg/m^2/day PO + Ad-RTS-mIL-12 5 × 10^9 vp intracranial): 378 ± 68 ng/g | Blood–brain barrier crossing ([2]; orally administered): crosses the blood–brain barrier | AUC0-t ratio between CSF and plasma ([2]; single oral dose 120 mg): 0.7 ± 0.2 | veledimex brain uptake ([2]; single oral dose 120 mg): ~ 1% | AUC0-t in CSF ([2]; single oral dose 120 mg, CSF): 0.0425 ± 0.0174 µg·h/mL | Cmax in CSF ([2]; single oral dose 120 mg, CSF): 0.00207 ± 0.00091 µg/mL | AUC0-t in plasma ([2]; single oral dose 120 mg, plasma): 5.887 ± 2.203 µg·h/mL | Cmax in plasma ([2]; single oral dose 120 mg, plasma, males and females pooled): 0.327 ± 0.142 µg/mL | mean plasma Tmax ([2]; single oral dose 120 mg, post dose): ~ 4 h | Cmax and AUC0-t ratio between CSF and plasma ([3]; C57BL/6 mice, single oral dose 225 mg/m^2): 0.34% | CSF AUC0-t [3, 4]: 0.466 µg·h/mL | CSF Cmax [3, 4]: 0.014 µg/mL | AUC0-t in the brain [3, 5]: 25.325 µg·h/mL | Cmax in the brain [3, 5]: 1.794 µg/mL | Cmax in plasma ([3]; C57BL/6 mice, single oral dose 225 mg/m^2, plasma): 4.153 µg/mL | Blood–brain barrier crossing ([3]; mice, orally administered): crosses the blood–brain barrier

Bevacizumab
median survival (GL-261 glioma; bevacizumab 30 mg/m^2 biwk ×3): 20 days
